Source: article PMC9551036, “A selective and orally bioavailable VHL-recruiting PROTAC achieves SMARCA2 degradation in vivo” (Nature Communications, 2022)
“And” between values parts separate entries of the source, which are not always exact repeats. Equal entries are not always repeated. Where two headings read alike, the source gives them in different places.

Assays:
[1] = target: T1, (Homo sapiens, UniProt P51532); experiment: TR-FRET ternary complex affinity and cooperativity, SMARCA4; format: binding
T1 construct: P51532, residues 1448–1569 with additional N-terminal SM residues; GST (TEV site) (N); His6 (TEV site) (N, cleaved yes); made in house; host or cells: SMARCA4^BD: Escherichia coli BL21(DE3)

PBRM1 BD = target: T2, PBRM1 BD (Homo sapiens, UniProt Q86U86); experiment: TR-FRET binary and ternary (PROTAC + VCB) affinity, PBRM1 bromodomain; format: binding; conditions: individual replicates
T2 construct: GST (TEV site) (N); made in house; host or cells: Escherichia coli BL21(DE3)

[2] = target: VCB: PROTAC: SMARCA2^BD ternary complex (Homo sapiens, UniProt P40337+P51531); experiment: TR-FRET ternary complex affinity and cooperativity, SMARCA2; format: binding; set-up: P51531-2, residues 1373-1493 with additional N-terminal SM residues; GST (TEV site) (N); His6 (TEV site) (N, cleaved yes); made in house; host or cells: SMARCA2^BD: Escherichia coli BL21(DE3)
[3] = target: T3, VCB: PROTAC: SMARCA2^BD ternary complex (Homo sapiens, UniProt P51531); experiment: as above; format: binding
T3 construct: P51531-2, residues 1373-1493 with additional N-terminal SM residues; GST (TEV site) (N); His6 (TEV site) (N, cleaved yes); made in house; host or cells: SMARCA2^BD: Escherichia coli BL21(DE3)

NCI-H1568 cells = experiment: Cell viability assay (CellTiter Glo) in NCI-H1568; format: cell-based, human; conditions: for EC50: read-out: EC50 cell proliferation (CellTiter Glo); for IC50: NCI-H1568, (18h), CellTiter Glo, individual replicates, read-out: NCI-H1568 (18h) CTG
Protocol: 500–2000 cells were seeded in white, clear bottom 96-well plates (Corning or Perkin Elmer) in 180–200 µl medium per well. The next day, compounds were added using a digital dispenser and a T0 sample was measured for reference. […], and viability (luminescence) was measured using CellTiter Glo or CellTiter Glo 2.0 (Promega) according to manufacturer’s instructions after equilibrating cells and reagents at room temperature and 10–20 min incubation time while shaking.

SMARCA4 = SMARCA4 (Homo sapiens, UniProt P51532); experiment: SMARCA4 capillary electrophoresis protein assay in RKO cells; format: cell-based; set-up: endogenous in cells; host or cells: RKO, HCT116, LU99, HCC-364, HCT-15, HCC4006, SK-N-AS; conditions: mean ± SD; for Dmax: RKO
Protocol: 130,000–200,000 cells were seeded in 24-well plates and incubated until settled down or overnight. Compounds were dissolved in DMSO and added to cells in indicated concentrations using a digital dispenser following an optional media change. Cells were incubated for 4 or 18 h as indicated. For SMARCA2/4 half-life determination, 150,000 or 200,000 cells were seeded in 24-well plates. The next day, 50 µg/ml cycloheximide (Sigma) was added and cells were incubated for 1–24 h. For SMARCA2/4 re-synthesis measurements, 200,000 cells were seeded in 24-well plates. The next day, 100 nM compound 6 was added for 4 h to degrade SMARCA2/4, and a sample was taken as baseline for normalisation. To allow re-synthesis, a VHL binder (compound 32, 25 or 50 µM) was then added for 3 or 24 h. Medium was removed, cells were washed with PBS and lysed with 80 µl Lysis Buffer (MSD Tris Lysis Buffer (#R60TX-2) + Halt Inhibitor Cocktail (100x) + Benzonase 0.5 µL/ml). Samples were frozen at −80 °C and thawed at room temperature before use. Samples were transferred to a V-bottom plate and insoluble debris was pelleted by centrifugation for 5 min at maximum speed. The supernatant was transferred to a fresh plate. Master Mix and Ladder were prepared according to manufacturer’s instructions for 12–230 kDa Wes Separation Module, 8 × 25 capillary cartridges, Protein Simple #SM-W004 with Anti-Rabbit Detection Module for Wes, Peggy Sue or Sally Sue, Protein Simple #DM-001. 4.8 µl lysate were mixed with 1.2 µl Master Mix to achieve a protein concentration of ~0.5 µg/µl. Antibodies were diluted in Antibody Diluent II (SMARCA2 Sigma #HPA029981 RRID:AB_10602406 1:25–100, SMARCA4 Cell Signalling #49360 clone D1Q7F RRID:AB_2728743 1:15–120 or Abcam #ab110641 clone EPNCIR111A RRID:AB_10861578 1:60, GAPDH Abcam #ab9485 RRID:AB_307275 1:250). Wes plates were prepared and run according to manufacturer’s instructions. Proteins were quantified with accompanying Compass Software. SMARCA2/4 protein levels were normalised to GAPDH. […] Where applicable, curves were fitted using a 4-parametric logistic model.

[4] = binary, PROTAC alone, individual replicates, read-out: SMARCA4 BD EC50
[5] = PROTAC + VCB, read-out: Ternary PBRM1 BD EC50 (PROTAC + VCB)
[6] = binary, PROTAC alone, read-out: PBRM1 EC50
[7] = PROTAC + VCB, individual replicates, read-out: Ternary SMARCA2 BD EC50 (PROTAC + VCB)
[8] = binary, PROTAC alone, individual replicates, read-out: SMARCA2 BD EC50
[9] = TR-FRET competition for SMARCA4BD, without VCB, mean ± SD, read-out: TR-FRET SMARCA4BD EC50
[10] = TR-FRET competition for SMARCA2BD, + VCB, mean ± SD, read-out: TR-FRET Ternary SMARCA2BD EC50 (PROTAC + VCB)
[11] = TR-FRET competition for SMARCA2BD, without VCB, mean ± SD, read-out: TR-FRET SMARCA2BD EC50

T1 sequence (P51532 1448-1569): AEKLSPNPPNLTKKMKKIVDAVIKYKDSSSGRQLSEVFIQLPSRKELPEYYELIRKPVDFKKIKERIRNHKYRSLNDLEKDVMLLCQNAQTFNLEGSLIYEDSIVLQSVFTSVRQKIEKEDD
SMARCA4, sequence (P51532 whole entry): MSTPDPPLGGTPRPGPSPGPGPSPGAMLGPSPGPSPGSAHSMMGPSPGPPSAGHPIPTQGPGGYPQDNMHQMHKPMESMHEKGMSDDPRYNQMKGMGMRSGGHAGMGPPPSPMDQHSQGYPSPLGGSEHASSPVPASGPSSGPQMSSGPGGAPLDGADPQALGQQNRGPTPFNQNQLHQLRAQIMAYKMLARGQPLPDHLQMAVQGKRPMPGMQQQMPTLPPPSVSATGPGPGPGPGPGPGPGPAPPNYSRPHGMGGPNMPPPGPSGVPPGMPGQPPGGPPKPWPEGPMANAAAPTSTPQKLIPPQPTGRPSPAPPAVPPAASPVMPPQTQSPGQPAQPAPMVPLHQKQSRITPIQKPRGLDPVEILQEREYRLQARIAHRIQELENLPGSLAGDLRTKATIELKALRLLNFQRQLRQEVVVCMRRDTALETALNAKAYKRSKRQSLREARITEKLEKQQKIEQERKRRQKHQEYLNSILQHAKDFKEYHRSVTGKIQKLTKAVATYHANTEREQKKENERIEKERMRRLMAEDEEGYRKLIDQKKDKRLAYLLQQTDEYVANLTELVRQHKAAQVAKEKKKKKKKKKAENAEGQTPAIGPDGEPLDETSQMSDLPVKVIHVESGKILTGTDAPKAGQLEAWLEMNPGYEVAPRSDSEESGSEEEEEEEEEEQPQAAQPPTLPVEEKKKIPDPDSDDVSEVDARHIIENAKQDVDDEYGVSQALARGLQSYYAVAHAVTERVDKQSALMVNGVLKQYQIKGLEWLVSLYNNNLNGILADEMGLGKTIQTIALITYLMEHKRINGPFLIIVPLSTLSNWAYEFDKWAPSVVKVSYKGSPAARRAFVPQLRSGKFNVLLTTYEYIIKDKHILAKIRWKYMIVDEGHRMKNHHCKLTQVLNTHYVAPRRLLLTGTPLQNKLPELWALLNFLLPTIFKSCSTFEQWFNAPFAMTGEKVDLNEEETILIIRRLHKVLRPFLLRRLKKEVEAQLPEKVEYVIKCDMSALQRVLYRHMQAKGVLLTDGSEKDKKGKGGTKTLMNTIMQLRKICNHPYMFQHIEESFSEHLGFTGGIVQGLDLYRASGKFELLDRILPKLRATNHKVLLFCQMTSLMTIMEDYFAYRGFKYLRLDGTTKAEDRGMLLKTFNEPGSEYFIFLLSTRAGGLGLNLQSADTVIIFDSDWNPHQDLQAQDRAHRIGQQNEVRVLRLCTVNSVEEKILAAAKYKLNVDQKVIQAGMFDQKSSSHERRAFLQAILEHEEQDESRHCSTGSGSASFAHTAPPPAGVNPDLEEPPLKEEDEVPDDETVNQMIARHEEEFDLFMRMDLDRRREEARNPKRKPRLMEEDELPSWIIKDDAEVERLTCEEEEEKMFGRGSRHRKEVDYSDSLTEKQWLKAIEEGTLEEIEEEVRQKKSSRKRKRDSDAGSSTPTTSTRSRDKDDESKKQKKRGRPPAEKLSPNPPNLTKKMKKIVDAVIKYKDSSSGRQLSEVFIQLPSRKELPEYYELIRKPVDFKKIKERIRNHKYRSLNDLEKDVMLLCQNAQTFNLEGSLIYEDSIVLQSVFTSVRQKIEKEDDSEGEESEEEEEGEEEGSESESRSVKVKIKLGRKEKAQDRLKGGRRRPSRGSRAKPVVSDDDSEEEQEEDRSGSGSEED
T3 sequence (P51531 with tags, fused parts or gaps isoform P51531-2): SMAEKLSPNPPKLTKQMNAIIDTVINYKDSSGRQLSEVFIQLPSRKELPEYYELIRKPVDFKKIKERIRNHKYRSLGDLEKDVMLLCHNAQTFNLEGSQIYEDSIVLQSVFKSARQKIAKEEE
VCB: PROTAC: SMARCA2^BD ternary complex (Homo sapiens, UniProt P40337+P51531), sequence (P51531 with tags, fused parts or gaps isoform P51531-2): as above
VCB: PROTAC: SMARCA2^BD ternary complex (Homo sapiens, UniProt P40337+P51531), sequence (P40337 54-213): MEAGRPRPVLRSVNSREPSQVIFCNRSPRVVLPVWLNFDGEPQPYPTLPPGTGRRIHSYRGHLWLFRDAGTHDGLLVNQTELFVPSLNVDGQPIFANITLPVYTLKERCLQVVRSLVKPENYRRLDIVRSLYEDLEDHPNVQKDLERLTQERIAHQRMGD
VCB: PROTAC: SMARCA2^BD ternary complex (Homo sapiens, UniProt P40337+P51531), sequence (Q15369 17-112 partner): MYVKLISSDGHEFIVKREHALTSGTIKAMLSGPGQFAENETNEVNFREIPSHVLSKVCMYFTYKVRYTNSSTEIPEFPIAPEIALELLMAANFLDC
VCB: PROTAC: SMARCA2^BD ternary complex (Homo sapiens, UniProt P40337+P51531), sequence (Q15370 1-104 partner): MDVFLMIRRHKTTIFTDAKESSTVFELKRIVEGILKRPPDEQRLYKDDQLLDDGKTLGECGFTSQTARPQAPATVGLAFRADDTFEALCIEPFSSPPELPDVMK

Row | SMILES | EC50 [1, 4] | EC50 (PBRM1 BD; [5]) | EC50 (PBRM1 BD; [6]) | EC50 [2, 7] | EC50 [3, 8] | EC50 (NCI-H1568 cells; NCI-H1568 ([…]), mean ± SD) [µM] | IC50 (NCI-H1568 cells) | DC50 (SMARCA4; RKO (4 h)) [µM] | DC50 (SMARCA4; RKO (18 h)) [µM] | EC50 [1, 9] [µM] | EC50 [2, 10] [µM] | EC50 [3, 11] [µM] | EC50 (NCI-H1568 cells; Homo sapiens, NCI-H1568, […]) [µM] | Dmax (SMARCA4; RKO (4 h)) [%] | Dmax (SMARCA4; RKO (18 h)) [%] | SMARCA4 Dmax (SMARCA4; RKO (18 h)) [%] | SMARCA4 Dmax (SMARCA4; RKO (4 h)) [%]
1 | CN1CCN(c2nc(=O)c3c(I)cccc3o2)CC1 [compound 16] | > 10 µM | > 10 µM | > 10 µM | > 10 µM | > 10 µM | > 10 | > 10 µM | > 25 | > 25 | – | – | – | – | – | – | – | –
2 | Cc1ncsc1-c1ccc([C@H](COC(C)CN2CCC(c3ccc4c(c3)n(C3CCCC3)c3nc(=O)c5c(Br)cccc5n43)CC2)NC(=O)[C@@H]2C[C@@H](O)CN2C(=O)[C@@H](NC(=O)C2(N(C)C)CC2)C(C)(C)C)cc1 (stereo partly drawn) [compound 10] | 0.108 µM and 0.25 µM and 0.259 µM | 0.00643 µM and 0.00796 µM and 0.00803 µM and 0.0097 µM | 0.0305 µM and 0.0317 µM and 0.03 µM | 0.0139 µM and 0.0163 µM and 0.0166 µM and 0.0373 µM and 0.0126 µM and 0.0093 µM and 0.0125 µM | 0.12 µM and 0.13 µM and 0.128 µM and 0.228 µM and 0.217 µM and 0.116 µM | – | 0.0215 µM and 0.02 µM and 0.00875 µM | 0.083 ± 0.022 | 0.174 ± 0.072 | 0.191 ± 0.085 | 0.015 ± 0.009 | 0.15 ± 0.052 | 0.016 ± 0.007 | 34 ± 6 | 68 ± 15 | – | –
3 | Cc1ncsc1-c1ccc([C@H](CCC(C)(C)CCN2CCC(c3ccc4c(c3)n(C3CCCC3)c3nc(=O)c5c(Br)cccc5n43)CC2)NC(=O)[C@@H]2C[C@@H](O)CN2C(=O)[C@@H](NC(=O)C2(F)CC2)C(C)(C)C)cc1 [compound 30] | > 2 µM and 0.564 µM and > 0.4 µM | 0.00423 µM and 0.00619 µM and 0.00806 µM | 0.111 µM and 0.105 µM and 0.192 µM | 0.0456 µM and 0.0532 µM and 0.0681 µM and 0.0446 µM and 0.0469 µM | 0.213 µM and 0.176 µM and > 0.4 µM and 0.4 µM and 0.304 µM | 0.012 ± 0.006 | 0.0197 µM and 0.0175 µM and 0.00843 µM and 0.00753 µM | > 25 | 0.073 ± 0.035 | – | 0.051 ± 0.01 | 0.26 ± 0.1 | – | – | – | 72 ± 7 | –
4 | Cc1ncsc1-c1ccc([C@H](COCCCN2CCC(c3ccc4c(c3)n(C3CCCC3)c3nc(=O)c5c(Br)cccc5n43)CC2)NC(=O)[C@@H]2C[C@@H](O)CN2C(=O)[C@@H](NC(=O)C2(F)CC2)C(C)(C)C)cc1 [compound 27] | 0.183 µM and 0.211 µM and 0.185 µM and 0.209 µM and 0.173 µM and 0.2 µM | 0.00218 µM and 0.00266 µM and 0.00287 µM and 0.00265 µM and 0.00269 µM and 0.00364 µM and 0.00328 µM | 0.0327 µM and 0.0351 µM and 0.0346 µM and 0.0303 µM and 0.0342 µM and 0.0228 µM and 0.0457 µM | 0.0295 µM and 0.0309 µM and 0.0306 µM and 0.0244 µM and 0.0469 µM and 0.0212 µM and 0.0349 µM and 0.0239 µM | 98.5 nM and 107 nM and 101 nM (2×) and 91.6 nM and 79.8 nM and 86.9 nM and 77.2 nM and 83.6 nM | 0.013 ± 0.001 | 0.0142 µM and 0.012 µM and 0.0133 µM | 0.042 ± 0.003 | 0.029 ± 0.006 | 0.193 ± 0.015 | 0.029 ± 0.008 | 0.091 ± 0.011 | – | – | – | 83 ± 7 | 55 ± 2
5 | Cc1ncsc1-c1ccc([C@H](CC[C@@H](C)CCN2CCC(c3ccc4c(c3)n(C3CCCC3)c3nc(=O)c5c(Br)cccc5n43)CC2)NC(=O)[C@@H]2C[C@@H](O)CN2C(=O)[C@@H](NC(=O)C2(F)CC2)C(C)(C)C)cc1 [compound 29] | 0.272 µM and 0.625 µM and 0.423 µM | 0.00266 µM and 0.00359 µM and 0.00413 µM | 0.0667 µM and 0.0788 µM and 0.115 µM | 0.0294 µM and 0.0324 µM and 0.0323 µM and 0.0326 µM | 0.166 µM and 0.269 µM and 0.192 µM and 0.189 µM | 0.005 ± 0.002 | 0.00401 µM and 0.00599 µM and 0.00249 µM and 0.00859 µM and 0.00701 µM | 0.015 ± 0.006 | 0.011 ± 0.003 | 0.416 ± 0.177 | 0.032 ± 0.002 | 0.201 ± 0.045 | – | – | – | 87 ± 6 | 68 ± 6
